Results: US4260630A, “Skin diseases” (priority 1977, dated 1981)

What was measured:
[1] = system: yeast DNA; assay: Melting and reassociation (cross-link formation) of yeast DNA treated in vitro plus 365 nm light; assay type: biochemical
Protocol: Measurement of the melting and reassociation characteristics of yeast DNA:
Biophys. […] The fractions containing the nuclear DNA were pooled and dialysed against a 0.1 M, pH 7 phosphate buffer. […] Unirradiated samples of DNA with or without the drugs were taken as references.
The cross-links formation of the two furocoumarins with native yeast DNA was tested by measuring the denaturation and renaturation pattern.

[2] = system: yeast DNA; assay: Photobinding to yeast DNA in vivo (radiolabelled drug plus 365 nm light); assay type: binding, Saccharomyces cerevisiae
Protocol: (§1) The radioactivity of an aliquot (0.1 ml) of this solution was measured in 5 ml of scintillation mixture (Nuclear Entreprise, Ltd., Edinburgh, Scotland, NE 250).
(§2) For the in vivo determinations stationary phase cells of the haploid wild type strain N 123 were prepared as previously described.
(§3) 2 ml cell suspensions were exposed to several doses of 365 nm light. In parallel, non irradiated samples were incubated for the same periods. Immediately after incubation and/or irradiation, the samples were centrifuged and the pellet was washed 3 times with 5 ml of saline (0.9% NaCl). The washed cell pellet was resuspended in 1 ml of saline and 1 ml of 2 N NaOH was added in order to hydrolyze the RNA. The suspension was incubated overnight in the dark at room temperature, then cooled down on ice, and 2 ml of 50% TCA were added slowly. The samples were left 20 minutes on ice and the precipitated DNA was filtered on a glass fiber filter disc (Whatman GF/A, 2.1 cm diameter). In some cases the filtrate containing the acid-soluble material was kept aside, and the radioactivity of an aliquot added to 5 ml of NE250 scintillation mixture measured. The precipitate was washed 3 times with 5 ml of 5% cold TCA and 5 ml of 70% ethanol. The filters were then dried and the radioactivity measured in plastic counting vials containing 5 ml of scintillation mixture (NE 250) in a Tricarb Packard scintillation spectrophotometer.

[3] = system: Saccharomyces cerevisiae
Protocol: (§4) A wild-type strain 211-1aM (29) of Saccharomyces cerivisiae was used, and the following mutants derived from it: S24-12c rad2-20 deficient in excision repair and S25-13b rad9-4 likely to be blocked in a recombinational repair pathway; a double mutant S 2057NL-24 rad2-20 -rad9-4 clone B was obtained by tetrad analysis of a heterozygote [formula]
(§5) The media and culture conditions used were as described in D. Averbeck, E. Moustacchi, (1975) Biochim. Biophys. Acta, 395, 393-404.
(§6) 10^6 cells/ml in saline (0.9% NaCl) were treated for 30 minutes with the drugs at a final concentration of 10 μg/ml and 1.2% ethanol present.
(§7) A Philips HPW 125 culot Edison high pressure mercury lamp was used with maximal output at the wavelength 365 nm. The irradiation dose measured by actinometry was 10 J/m^2 per sec., using the following set up: 10 ml of actinometer solution (or the cell suspension, usually 1×10^6 cells/ml), stirred continuously by a magnetic stirrer, were irradiated at room temperature in an open Petri dish of 10 cm diameter at a distance of 10 cm from the center of the light bulb which was mounted horizontally. A 2 mm thick pyrex glass sheet (20×25 cm) was placed in the center of the light beam to cut out UV light of wavelength below 340 nm. Overheating was prevented either by a continuous flow of compressed air between the light bulb and the glass or by a pyrex glass water filter of 3 cm total thickness. An accumulative irradiation dose was given to the same sample. After each dose 0.1 ml of irradiated cell suspension was taken, diluted and aliquots plated.

[4] = system: Saccharomyces cerevisiae; assay: Repair of photoinduced lesions in yeast (repair mutants, agar holding); assay type: cell-based
Source text: Biophys. Acta, 395, 393-404.
Consequently, it appears that the excision repair pathway in wild type and rad9-4 cells is essential in AHR for both compounds.

[5] = system: Saccharomyces cerevisiae; assay: Induction of cytoplasmic "petite" mutations in yeast; conditions: compared at the same survival level (10%)
Protocol: as §4, §5, §6
as §7, with “Overheating was prevented either by a continuous flow of compressed air between the light bulb and the glass or by a pyrex glass water filter of 3 cm total thickness. An accumulative irradiation dose was given to the same sample. After each dose 0.1 ml of irradiated cell suspension was taken, diluted and aliquots plated.” left out

[6] = system: calf thymus DNA; assay: Photobinding to native calf thymus DNA in vitro; assay type: binding
Protocol: These determinations were done in vitro and in vivo. […] The thickness of the irradiated sample was 1 mm. After irradiation, the solution was diluted by a factor of 2, and NaCl was added to a final concentration of 1 M. The DNA was precipitated with 2 volumes of cold pure ethanol. The samples were left overnight in the cold at -20° C. The precipitate was then washed by centrifugation three times with 3 ml of 70% ethanol and redissolved in 3 ml of water. The DNA recovery was checked by determination of the optical density of the solution at 260 nm.

[7] = system: yeast RNA; assay: Photobinding to yeast RNA in vivo (radiolabelled drug plus 365 nm light); assay type: binding, Saccharomyces cerevisiae; conditions: for cpm for 10^8 cells: RNA; for Molecules 8-MOP/μg DNA / μg 8-MOP/μg DNA: binding to RNA
Protocol: as §1, §2, §3

[8] = 8-MOP, 15 min, 18.9 × 10^4 ergs.mm^-2 365 nm
[9] = 8-MOP, 30 min, 37.8 × 10^4 ergs.mm^-2 365 nm
[10] = 8-MOP, 60 min, 75.6 × 10^4 ergs.mm^-2 365 nm
[11] = 8-MOP, 90 min, 113.4 × 10^4 ergs.mm^-2 365 nm
[12] = 8-MOP, 120 min, 151.2 × 10^4 ergs.mm^-2 365 nm
[13] = 15 min, 18.9 × 10^4 ergs.mm^-2 365 nm
[14] = 30 min, 37.8 × 10^4 ergs.mm^-2 365 nm
[15] = 60 min, 75.6 × 10^4 ergs.mm^-2 365 nm
[16] = 90 min, 113.4 × 10^4 ergs.mm^-2 365 nm
[17] = 120 min, 151.2 × 10^4 ergs.mm^-2 365 nm
[18] = equimolar concentration to 3-CPs
[19] = 7.5 × 10^-5, 30 min, 37.8 erg. cm^-2 365 nm (so in the source)
[20] = 7.5 × 10^-5, 60 min, 75.6 erg. cm^-2 365 nm (so in the source)
[21] = 7.5 × 10^-5, 90 min, 113.4 erg. cm^-2 365 nm (so in the source)
[22] = 7.5 × 10^-5, 120 min, 151.2 erg. cm^-2 365 nm (so in the source)
[23] = 7.5 × 10^-5, 180 min, 226.8 erg. cm^-2 365 nm (so in the source)

COc1c2occc2cc2ccc(=O)oc12 [Example 8-MOP, 8-methoxypsoralen, reference compound]
reassociation of DNA after heat denaturation [1]: a fraction of the DNA is capable to renature | cpm for 10^8 cells [2, 8]: 1161 cpm for 10^8 cells | cpm for 10^8 cells [2, 9]: 1474 cpm for 10^8 cells | cpm for 10^8 cells [2, 10]: 2805 cpm for 10^8 cells | cpm for 10^8 cells [2, 11]: 5582 cpm for 10^8 cells | cpm for 10^8 cells [2, 12]: 5572 cpm for 10^8 cells | Molecules 8-MOP/μg DNA ([2]; 15-120 min, no 365 nm light): 0.034 Molecules 8-MOP/μg DNA × 10^14 | cpm for 10^8 cells ([2]; 15-120 min, no 365 nm light): 404.75 cpm for 10^8 cells | μg 8-MOP/μg DNA ([2]; 15-120 min, no 365 nm light): 0.126 μg 8-MOP/μg DNA × 10^-2 | molecules linked to DNA per cell ([2]; 18.9×10^3 J/m^2, 5×10^-5 M): 0.5×10^6 molecules per cell | binding to DNA in vivo compared with in vitro ([2]; 365 nm light): much higher in the in vivo condition than in vitro | Molecules 8-MOP/μg DNA [2, 13]: 0.10 Molecules 8-MOP/μg DNA × 10^14 | μg 8-MOP/μg DNA [2, 13]: 0.36 μg 8-MOP/μg DNA × 10^-2 | Molecules 8-MOP/μg DNA [2, 14]: 0.13 Molecules 8-MOP/μg DNA × 10^14 | μg 8-MOP/μg DNA [2, 14]: 0.46 μg 8-MOP/μg DNA × 10^-2 | Molecules 8-MOP/μg DNA [2, 15]: 0.24 Molecules 8-MOP/μg DNA × 10^14 | μg 8-MOP/μg DNA [2, 15]: 0.86 μg 8-MOP/μg DNA × 10^-2 | Molecules 8-MOP/μg DNA [2, 16]: 0.48 Molecules 8-MOP/μg DNA × 10^14 | μg 8-MOP/μg DNA [2, 16]: 1.72 μg 8-MOP/μg DNA × 10^-2 | Molecules 8-MOP/μg DNA [2, 17]: 0.48 Molecules 8-MOP/μg DNA × 10^14 | μg 8-MOP/μg DNA [2, 17]: 1.72 μg 8-MOP/μg DNA × 10^-2 | light dose dependence of binding with DNA [2, 18]: increases linearly in the range of light doses used | photosensitization of cells compared with 3-CPs or angelicin [3]: more photosensitized | survivors ([3]; saline, 5 min): 10^-5 | dark repair by strain defective in excision ([4]; agar holding): unable to perform a dark repair | interaction between rad2 and rad9 repair pathways ([4]; plus 365 nm light): additive interaction | kinetics of agar holding recovery (AHR) ([4]; wild-type cells): same kinetics of AHR | induction of cytoplasmic "petite" mutations [5]: less reactive | μg 8-MOP/μDNA ([6]; 7.5 × 10^-5, 0-180 min incub. (dark)): 0.031×10^-4 μg 8-MOP/μDNA | Binding yield 8-MOP molecules/nucleotide [6, 19]: 1/900 | μg 8-MOP/μDNA [6, 19]: 7.3×10^-4 μg 8-MOP/μDNA | Binding yield 8-MOP molecules/nucleotide [6, 20]: 1/532 | μg 8-MOP/μDNA [6, 20]: 12.4×10^-4 μg 8-MOP/μDNA | Binding yield 8-MOP molecules/nucleotide [6, 21]: 1/428 | μg 8-MOP/μDNA [6, 21]: 15.4×10^-4 μg 8-MOP/μDNA | Binding yield 8-MOP molecules/nucleotide [6, 22]: 1/386 | μg 8-MOP/μDNA [6, 22]: 17.1×10^-4 μg 8-MOP/μDNA | Binding yield 8-MOP molecules/nucleotide [6, 23]: 1.256 molecules/nucleotide | μg 8-MOP/μDNA [6, 23]: 25.8×10^-4 μg 8-MOP/μDNA | cpm/μg DNA ([6]; 8-MOP 7.5 × 10^-5, 0-180 min incub. (dark)): 0.24 cpm/μg DNA | cpm/μg DNA ([6]; 8-MOP 7.5 × 10^-5, 30 min, 37.8 erg. cm^-2 365 nm (so in the source)): 56.3 cpm/μg DNA | cpm/μg DNA ([6]; 8-MOP 7.5 × 10^-5, 60 min, 75.6 erg. cm^-2 365 nm (so in the source)): 95.7 cpm/μg DNA | cpm/μg DNA ([6]; 8-MOP 7.5 × 10^-5, 90 min, 113.4 erg. cm^-2 365 nm (so in the source)): 118.8 cpm/μg DNA | cpm/μg DNA ([6]; 8-MOP 7.5 × 10^-5, 120 min, 151.2 erg. cm^-2 365 nm (so in the source)): 131.5 cpm/μg DNA | cpm/μg DNA ([6]; 8-MOP 7.5 × 10^-5, 180 min, 226.8 erg. cm^-2 365 nm (so in the source)): 198.5 cpm/μg DNA | photoaffinity for RNA [7]: relatively low photoaffinity for RNA | cpm for 10^8 cells [7, 8]: 7400 cpm for 10^8 cells | cpm for 10^8 cells [7, 9]: 12920 cpm for 10^8 cells | cpm for 10^8 cells [7, 10]: 23580 cpm for 10^8 cells | cpm for 10^8 cells [7, 11]: 34150 cpm for 10^8 cells | cpm for 10^8 cells [7, 12]: 44060 cpm for 10^8 cells | cpm for 10^8 cells ([7]; 15-120 min, no 365 nm light): 3805 cpm for 10^8 cells | Molecules 8-MOP/μg DNA ([7]; 15-120 min, no 365 nm light): 0.033 Molecules 8-MOP/μg DNA × 10^14 | μg 8-MOP/μg DNA ([7]; 15-120 min, no 365 nm light): 0.12 μg 8-MOP/μg DNA × 10^-2 | Molecules 8-MOP/μg DNA [7, 13]: 0.064 Molecules 8-MOP/μg DNA × 10^14 | μg 8-MOP/μg DNA [7, 13]: 0.228 μg 8-MOP/μg DNA × 10^-2 | Molecules 8-MOP/μg DNA [7, 14]: 0.11 Molecules 8-MOP/μg DNA × 10^14 | μg 8-MOP/μg DNA [7, 14]: 0.40 μg 8-MOP/μg DNA × 10^-2 | Molecules 8-MOP/μg DNA [7, 15]: 0.20 Molecules 8-MOP/μg DNA × 10^14 | μg 8-MOP/μg DNA [7, 15]: 0.73 μg 8-MOP/μg DNA × 10^-2 | Molecules 8-MOP/μg DNA [7, 16]: 0.29 Molecules 8-MOP/μg DNA × 10^14 | μg 8-MOP/μg DNA [7, 16]: 1.05 μg 8-MOP/μg DNA × 10^-2 | Molecules 8-MOP/μg DNA [7, 17]: 0.38 Molecules 8-MOP/μg DNA × 10^14 | μg 8-MOP/μg DNA [7, 17]: 1.36 μg 8-MOP/μg DNA × 10^-2 | light dose dependence of binding with RNA [7, 18]: increases linearly in the range of light doses used
